Assay results as given in patent US7704995B2 (Exelixis, Inc., priority 2003, dated 2010).

Molecular target: T1, Chk1 (Homo sapiens, UniProt O14757)
T1 construct: purchased Upstate Biotechnology
T1 sequence (O14757 1-476): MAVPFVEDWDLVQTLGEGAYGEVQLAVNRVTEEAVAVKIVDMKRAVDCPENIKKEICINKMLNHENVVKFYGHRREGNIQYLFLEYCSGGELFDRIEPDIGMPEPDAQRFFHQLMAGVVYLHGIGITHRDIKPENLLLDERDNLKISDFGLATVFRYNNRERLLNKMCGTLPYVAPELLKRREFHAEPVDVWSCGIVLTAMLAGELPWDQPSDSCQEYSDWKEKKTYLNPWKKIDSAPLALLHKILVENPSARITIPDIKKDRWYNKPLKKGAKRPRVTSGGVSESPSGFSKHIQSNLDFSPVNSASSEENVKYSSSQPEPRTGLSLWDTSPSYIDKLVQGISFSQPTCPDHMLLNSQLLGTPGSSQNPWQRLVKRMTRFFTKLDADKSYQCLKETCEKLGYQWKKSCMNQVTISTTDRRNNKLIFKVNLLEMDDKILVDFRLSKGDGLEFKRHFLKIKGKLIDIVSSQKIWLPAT
Experiment: Chk1 kinase assay: incorporation of γ-33P ATP into immobilized myelin basic protein
Format: biochemical
Settings: Table 11, Chk1 only; class symbols A-D; read-out: Chk1 IC50
How it was run: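 Incorporation of γ-33P into myelin basic protein coated on plates was scintillation-counted after 1 h at room temperature, duplicate points. Unlabeled ATP was 10 μM with 10 nM Chk1, 30 μM with 20 nM Chk2; buffer Hepes pH 7.6, MgCl2, DTT, 1% DMSO. Output IC50, optionally converted to Ki.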

Row | IC50 [µM] | SMILES
1 | < 0.05 | Nc1ncc(-c2cccc(CNC(=O)Nc3ccc(-c4ccccc4)cc3)c2)nc1C(=O)N[C@H]1CCCNC1 [Example 908, 3-amino-6-[3-({[(biphenyl-4-ylamino)carbonyl]amino}methyl)phenyl]-N-[(3S)-piperidin-3-yl]pyrazine-2-carboxamide]
2 | < 0.05 | Nc1ncc(-c2cccc(C(=O)NCc3ccccc3Br)c2)nc1C(=O)N[C@H]1CCCNC1 [Example 872, 3-amino-6-[3-({[(2-bromophenyl)methyl]amino}carbonyl)phenyl]-N-[(3S)-piperidin-3-yl]pyrazine-2-carboxamide]
3 | < 0.05 | Nc1ncc(-c2cccc(C(=O)NCc3ccc4c(c3)OCCO4)c2)nc1C(=O)N[C@H]1CCCCNC1 [Example 1020, 3-amino-N-[(3S)-azepan-3-yl]-6-(3-{[(2,3-dihydro-1,4-benzodioxin-6-ylmethyl)amino]carbonyl}phenyl)pyrazine-2-carboxamide]

The next lines start with the compound.

Row | SMILES | IC50 [µM]
4 | Nc1ncc(-c2cccc(NC(=O)Cc3cccc(F)c3)c2)nc1C(=O)N[C@H]1CCCNC1 [Example 979, 3-amino-6-(3-{[(3-fluorophenyl)acetyl]amino}phenyl)-N-[(3S)-piperidin-3-yl]pyrazine-2-carboxamide] | < 0.05
5 | Nc1ncc(-c2cccc(NC(=O)Cc3ccc(Cl)cc3Cl)c2)nc1-c1nnc([C@H]2CCCNC2)[nH]1 [Example 809, N-[3-(5-amino-6-{5-[(3S)-piperidin-3-yl]-4H-1,2,4-triazol-3-yl}pyrazin-2-yl)phenyl]-2-(2,4-dichlorophenyl)acetamide] | < 0.05
6 | Nc1ncc(-c2cccc(C(=O)NCc3ccc(Cl)cc3F)c2)nc1C(=O)N[C@H]1CCCNC1 [Example 849, 3-amino-6-[3-({[(4-chloro-2-fluorophenyl)methyl]amino}carbonyl)phenyl]-N-[(3S)-piperidin-3-yl]pyrazine-2-carboxamide] | < 0.05
7 | Nc1ncc(-c2cccc(NC(=O)Cc3ccc(F)cc3Cl)c2)nc1C(=O)N[C@H]1CCCNC1 [Example 888, 3-amino-6-(3-{[(2-chloro-4-fluorophenyl)acetyl]amino}phenyl)-N-[(3S)-piperidin-3-yl]pyrazine-2-carboxamide] | < 0.05
8 | Nc1ncc(-c2cccc(CNC(=O)Nc3ccc(Br)cc3)c2)nc1C(=O)N[C@H]1CCCNC1 [Example 895] | < 0.05

Same assay, conditions: Table 11; Chk1 only; read-out: Chk1 IC50

Row | IC50 [µM] | SMILES
9 | 1 to 10 | Nc1ncc(-c2cccc(CN[C@H]3CCc4ccccc43)c2)nc1C(=O)N1CCCC1 [Example 549, 5-(3-{[(1S)-2,3-dihydro-1H-inden-1-ylamino]methyl}phenyl)-3-(pyrrolidin-1-ylcarbonyl)pyrazin-2-amine]
10 | 0.05 to 1 | CNNC(=O)c1nc(-c2cccc(CN[C@H]3CCc4ccccc43)c2)cnc1N [Example 553, 3-amino-6-(3-{[(1S)-2,3-dihydro-1H-inden-1-ylamino]methyl}phenyl)-N′-methylpyrazine-2-carbohydrazide]
11 | 1 to 10 | Cn1nc(-c2nc(-c3cccc(C(=O)N[C@H]4CCc5ccccc54)c3)cnc2N)nc1[C@@H]1CCCN(C(=O)OCc2ccccc2)C1 [Example 754, phenylmethyl (3R)-3-{3-[3-amino-6-(3-{[(1S)-2,3-dihydro-1H-inden-1-ylamino]carbonyl}phenyl)pyrazin-2-yl]-1-methyl-1H-1,2,4-triazol-5-yl}piperidine-1-carboxylate]
12 | < 0.05 | Nc1ncc(-c2cccc(C(=O)N[C@@H]3c4ccccc4C[C@@H]3O)c2)nc1C(=O)N[C@H]1CCNC1 [Example 726, 3-amino-6-[3-({[(1R,2S)-2-hydroxy-2,3-dihydro-1H-inden-1-yl]amino}carbonyl)phenyl]-N-[(3S)-pyrrolidin-3-yl]pyrazine-2-carboxamide]
13 | < 0.05 | CNC(=O)c1nc(-c2cccc(CNC3CCc4ccc(F)cc43)c2)cnc1N (stereo not drawn) [Example 475, 3-amino-6-(3-{[(6-fluoro-2,3-dihydro-1H-inden-1-yl)amino]methyl}phenyl)-N-methylpyrazine-2-carboxamide]
14 | 0.05 to 1 | Nc1ncc(-c2cccc(C(=O)NC3Cc4ccccc4C3)c2)nc1C(=O)N[C@H]1CCNC1 [Example 745, 3-amino-6-{3-[(2,3-dihydro-1H-inden-2-ylamino)carbonyl]phenyl}-N-[(3S)-pyrrolidin-3-yl]pyrazine-2-carboxamide]
15 | 1 to 10 | COCc1nnc(-c2nc(-c3cccc(CN[C@H]4CCc5ccccc54)c3)cnc2N)[nH]1 [Example 595, 5-(3-{[(1S)-2,3-dihydro-1H-inden-1-ylamino]methyl}phenyl)-3-{5-[(methyloxy)methyl]-4H-1,2,4-triazol-3-yl}pyrazin-2-amine]
16 | < 0.05 | CNC(=O)c1nc(-c2cccc(CNC3CCc4c(Br)cccc43)c2)cnc1N (stereo not drawn) [Example 492, 3-amino-6-(3-{[(4-bromo-2,3-dihydro-1H-inden-1-yl)amino]methyl}phenyl)-N-methylpyrazine-2-carboxamide]

More lines, now with the values behind:

Row | SMILES | IC50 [µM]
17 | CNC(=O)c1nc(-c2cccc(CNC3CCc4cc(F)cc(F)c43)c2)cnc1N (stereo not drawn) [Example 479, 3-amino-6-(3-{[(5,7-difluoro-2,3-dihydro-1H-inden-1-yl)amino]methyl}phenyl)-N-methylpyrazine-2-carboxamide] | 0.05 to 1
18 | Nc1ncc(-c2cccc(CO)c2)nc1C(=O)NNC(=O)Nc1ccccc1 [Example 572, 2-({3-amino-6-[3-(hydroxymethyl)phenyl]pyrazin-2-yl}carbonyl)-N-phenylhydrazinecarboxamide] | 0.05 to 1
19 | CNC(=O)c1nc(-c2cccc(CN[C@@H](CO)c3ccccc3)c2)cnc1N [Example 428, 3-amino-6-[3-({[(1R)-2-hydroxy-1-phenylethyl]amino}methyl)phenyl]-N-methylpyrazine-2-carboxamide] | 0.05 to 1
20 | CNC(=O)c1nc(-c2cccc(CNCc3cnc(C)cn3)c2)cnc1N [Example 435, 3-amino-N-methyl-6-[3-({[(5-methylpyrazin-2-yl)methyl]amino}methyl)phenyl]pyrazine-2-carboxamide] | 0.05 to 1

Same assay, conditions: read-out: Chk1 IC50

Row | IC50 [µM] | SMILES
21 | 0.05 to 1 | CNC(=O)c1nc(-c2cccc(OCCN(C)Cc3ccccc3)c2)cnc1N [Example 183, 3-amino-N-methyl-6-[3-({2-[methyl(phenylmethyl)amino]ethyl}oxy)phenyl]pyrazine-2-carboxamide]
22 | 0.05 to 1 | CNC(=O)c1nc(-c2ccc(C(=O)NCCc3ccccc3)cc2)cnc1N [Example 151, 3-amino-N-methyl-6-(4-{[(2-phenylethyl)amino]carbonyl}phenyl)pyrazine-2-carboxamide]
23 | 1 to 10 | CNC(=O)c1nc(-c2ccc(C(=O)NCc3ccccc3)cc2)cnc1N [Example 150, 3-amino-N-methyl-6-(4-{[(phenylmethyl)amino]carbonyl}phenyl)pyrazine-2-carboxamide]
24 | ≥ 10 | COC(=O)c1cccc(-c2cnc(N)c(C(=O)NC3CC3)n2)c1 [Example 241, methyl 3-{5-amino-6-[(cyclopropylamino)carbonyl]pyrazin-2-yl}benzoate]
25 | 0.05 to 1 | CNC(=O)c1nc(-c2cccc(C(=O)NCc3c(F)ccc(F)c3Cl)c2)cnc1N [Example 297, 3-amino-6-[3-({[(2-chloro-3,6-difluorophenyl)methyl]amino}carbonyl)phenyl]-N-methylpyrazine-2-carboxamide]
26 | 0.05 to 1 | CNC(=O)c1nc(-c2cccc(CNC(=O)COc3ccc(C(C)C)cc3)c2)cnc1N [Example 346, 3-amino-N-methyl-6-(3-{[({[4-(1-methylethyl)phenyl]oxy}acetyl)amino]methyl}phenyl)pyrazine-2-carboxamide]
27 | < 0.05 | CNC(=O)c1nc(-c2cccc(C(=O)NCc3ccc(-c4cccs4)cc3)c2)cnc1N [Example 377, 3-amino-N-methyl-6-{3-[({[4-(2-thienyl)phenyl]methyl}amino)carbonyl]phenyl}pyrazine-2-carboxamide]
28 | 0.05 to 1 | CNC(=O)c1nc(-c2cccc(C(=O)NCc3c(Cl)cc(Cl)cc3Cl)c2)cnc1N [Example 292, 3-amino-N-methyl-6-[3-({[(2,4,6-trichlorophenyl)methyl]amino}carbonyl)phenyl]pyrazine-2-carboxamide]
29 | 1 to 10 | CNC(=O)c1nc(-c2cccc(C(=O)NCCc3cc(OC)cc(OC)c3)c2)cnc1N [Example 173, 3-amino-6-{3-[({2-[3,5-bis(methyloxy)phenyl]ethyl}amino)carbonyl]phenyl}-N-methylpyrazine-2-carboxamide]
30 | 0.05 to 1 | CNC(=O)c1nc(-c2cccc(C(=O)NCc3cccnc3)c2)cnc1N [Example 122, 3-amino-N-methyl-6-(3-{[(pyridin-3-ylmethyl)amino]carbonyl}phenyl)pyrazine-2-carboxamide]
31 | 1 to 10 | CNC(=O)c1nc(-c2cccc(C(=O)NC(C)(C)c3ccccc3)c2)cnc1N [Example 225, 3-amino-N-methyl-6-(3-{[(1-methyl-1-phenylethyl)amino]carbonyl}phenyl)pyrazine-2-carboxamide]
32 | 0.05 to 1 | CNC(=O)c1nc(-c2cccc(C(=O)NCC3CCNC3)c2)cnc1N (stereo not drawn) [Example 366, 3-amino-N-methyl-6-(3-{[(pyrrolidin-3-ylmethyl)amino]carbonyl}phenyl)pyrazine-2-carboxamide]
33 | 0.05 to 1 | CNC(=O)c1nc(-c2cccc(C(=O)NCC3CCNCC3)c2)cnc1N [Example 135, 3-amino-N-methyl-6-(3-{[(piperidin-4-ylmethyl)amino]carbonyl}phenyl)pyrazine-2-carboxamide]
